In US12065436B2, “Cardiac sarcomere inhibitors” (Cytokinetics, Inc., priority 2018, dated 2024):

Biological target: bovine cardiac myofibrils (full-length cardiac myosin ATPase in the native sarcomere) (Bos taurus (Bovine), UniProt Q9BE39)
Experiment: Skinned bovine cardiac myofibril ATPase assay (PK/LDH-coupled)
Format: biochemical
Details: Ca2+ activating to 75% of maximal rate; for CDMF75 IC15: concentration giving 15% inhibition; for IC50: read-out: CDMF75 IC50
In short: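 Inhibition of steady-state ATPase read at 340 nm through a PK/LDH-coupled NADH system (0.5 mM NADH, 1.5 mM PEP). Detergent-skinned bovine cardiac myofibrils, 1 mg/mL, were tested at pH 6.8 in PIPES/MgCl2 with 50 μM ATP and calcium adjusted to give pCa50 or pCa75 activation.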

Chain of bovine cardiac myofibrils (full-length cardiac myosin ATPase in the native sarcomere) (Q9BE39 whole entry): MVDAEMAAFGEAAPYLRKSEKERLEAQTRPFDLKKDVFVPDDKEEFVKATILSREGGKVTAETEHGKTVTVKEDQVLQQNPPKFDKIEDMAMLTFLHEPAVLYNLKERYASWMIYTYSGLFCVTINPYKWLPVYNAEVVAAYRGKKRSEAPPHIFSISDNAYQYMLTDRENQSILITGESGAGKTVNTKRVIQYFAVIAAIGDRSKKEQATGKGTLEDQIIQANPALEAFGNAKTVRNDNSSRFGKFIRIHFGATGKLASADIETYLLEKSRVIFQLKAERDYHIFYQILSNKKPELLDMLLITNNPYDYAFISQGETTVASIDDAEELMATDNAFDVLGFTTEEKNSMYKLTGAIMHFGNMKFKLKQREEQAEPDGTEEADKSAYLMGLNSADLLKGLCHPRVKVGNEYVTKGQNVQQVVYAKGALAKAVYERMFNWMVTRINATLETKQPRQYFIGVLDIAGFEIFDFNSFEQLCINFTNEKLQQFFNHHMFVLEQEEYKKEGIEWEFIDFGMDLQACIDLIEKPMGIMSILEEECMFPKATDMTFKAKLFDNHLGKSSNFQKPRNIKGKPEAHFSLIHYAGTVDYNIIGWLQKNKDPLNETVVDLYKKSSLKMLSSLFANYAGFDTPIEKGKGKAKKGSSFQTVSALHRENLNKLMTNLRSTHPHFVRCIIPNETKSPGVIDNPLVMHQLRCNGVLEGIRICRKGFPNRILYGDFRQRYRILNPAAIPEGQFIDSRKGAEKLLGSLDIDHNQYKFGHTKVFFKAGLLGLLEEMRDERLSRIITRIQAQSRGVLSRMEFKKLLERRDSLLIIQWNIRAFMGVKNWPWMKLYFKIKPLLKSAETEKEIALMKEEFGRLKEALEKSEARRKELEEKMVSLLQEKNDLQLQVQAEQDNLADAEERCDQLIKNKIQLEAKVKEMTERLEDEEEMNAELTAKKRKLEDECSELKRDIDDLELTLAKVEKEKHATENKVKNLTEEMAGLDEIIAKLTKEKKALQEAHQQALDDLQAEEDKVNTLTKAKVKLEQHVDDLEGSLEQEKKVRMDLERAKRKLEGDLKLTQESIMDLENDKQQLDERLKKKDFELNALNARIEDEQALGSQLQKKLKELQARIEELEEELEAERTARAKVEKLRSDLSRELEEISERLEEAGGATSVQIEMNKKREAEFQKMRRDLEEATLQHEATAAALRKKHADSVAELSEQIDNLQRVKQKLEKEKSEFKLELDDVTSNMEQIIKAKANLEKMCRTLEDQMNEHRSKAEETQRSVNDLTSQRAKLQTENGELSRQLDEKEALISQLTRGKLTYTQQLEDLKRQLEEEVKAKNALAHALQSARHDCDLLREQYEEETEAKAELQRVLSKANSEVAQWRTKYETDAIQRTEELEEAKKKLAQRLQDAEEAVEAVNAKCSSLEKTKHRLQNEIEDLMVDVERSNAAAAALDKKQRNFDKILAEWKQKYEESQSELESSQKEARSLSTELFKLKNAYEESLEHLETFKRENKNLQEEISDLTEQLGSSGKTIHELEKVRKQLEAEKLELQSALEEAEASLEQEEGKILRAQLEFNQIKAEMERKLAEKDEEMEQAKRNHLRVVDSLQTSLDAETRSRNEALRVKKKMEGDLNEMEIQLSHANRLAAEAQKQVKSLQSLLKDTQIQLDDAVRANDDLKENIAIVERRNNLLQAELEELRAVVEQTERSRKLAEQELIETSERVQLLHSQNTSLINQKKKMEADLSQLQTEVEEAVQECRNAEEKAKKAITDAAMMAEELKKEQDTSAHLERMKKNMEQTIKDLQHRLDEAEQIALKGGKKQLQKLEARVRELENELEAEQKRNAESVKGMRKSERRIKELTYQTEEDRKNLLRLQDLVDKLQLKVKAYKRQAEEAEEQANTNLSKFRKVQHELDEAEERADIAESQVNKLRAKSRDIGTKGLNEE
Chain of bovine cardiac myofibrils (full-length cardiac myosin ATPase in the native sarcomere) (P85100 whole entry partner): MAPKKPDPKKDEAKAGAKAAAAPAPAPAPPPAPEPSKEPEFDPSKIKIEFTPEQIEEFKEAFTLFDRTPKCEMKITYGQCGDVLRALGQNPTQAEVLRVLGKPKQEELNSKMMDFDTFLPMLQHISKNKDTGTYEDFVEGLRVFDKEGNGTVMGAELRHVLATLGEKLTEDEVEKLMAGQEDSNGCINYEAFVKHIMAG
Chain of bovine cardiac myofibrils (full-length cardiac myosin ATPase in the native sarcomere) (Q3SZE5 whole entry partner): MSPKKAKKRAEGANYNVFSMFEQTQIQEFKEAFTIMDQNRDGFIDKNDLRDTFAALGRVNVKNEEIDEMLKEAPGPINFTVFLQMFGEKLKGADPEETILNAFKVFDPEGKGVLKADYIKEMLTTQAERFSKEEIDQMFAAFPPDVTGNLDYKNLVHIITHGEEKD

Row | SMILES | CDMF75 IC15 | IC50
1 | CCc1nc(-c2ccc3c(c2)OCC3NC(=O)c2cc(C)nn2C)no1 (stereo not shown) [Compound 230, N-(6-(5-ethyl-1,2,4-oxadiazol-3-yl)-2,3-dihydrobenzofuran-3-yl)-1,3-dimethyl-1H-pyrazole-5-carboxamide] | 600 nM | 1800 nM
2 | CCc1nc(-c2ccc3c(c2)OC[C@H]3NC(=O)c2cc(C)nn2C)no1 [Compound 231, (S)-N-(6-(5-ethyl-1,2,4-oxadiazol-3-yl)-2,3-dihydrobenzofuran-3-yl)-1,3-dimethyl-1H-pyrazole-5-carboxamide] | 300 nM | 1000 nM
3 | Cc1cc(C(=O)NC2COc3cc(-c4noc(C5CC5)n4)ccc32)n(C)n1 (stereo not shown) [Compound 232, N-(6-(5-cyclopropyl-1,2,4-oxadiazol-3-yl)-2,3-dihydrobenzofuran-3-yl)-1,3-dimethyl-1H-pyrazole-5-carboxamide] | 700 nM | 2400 nM
4 | Cc1cc(C(=O)N[C@@H]2COc3cc(-c4noc(C5CC5)n4)ccc32)n(C)n1 [Compound 233, (S)-N-(6-(5-cyclopropyl-1,2,4-oxadiazol-3-yl)-2,3-dihydrobenzofuran-3-yl)-1,3-dimethyl-1H-pyrazole-5-carboxamide] | 300 nM | 1100 nM
5 | Cn1nnc(C(=O)NC2COc3cc(-c4noc(C5CC5)n4)ccc32)n1 (stereo not shown) [Compound 234, N-(6-(5-cyclopropyl-1,2,4-oxadiazol-3-yl)-2,3-dihydrobenzofuran-3-yl)-2-methyl-2H-tetrazole-5-carboxamide] | 1900 nM | 8000 nM
6 | Cn1nnc(C(=O)N[C@@H]2COc3cc(-c4noc(C5CC5)n4)ccc32)n1 [Compound 235, (S)-N-(6-(5-cyclopropyl-1,2,4-oxadiazol-3-yl)-2,3-dihydrobenzofuran-3-yl)-2-methyl-2H-tetrazole-5-carboxamide] | 1200 nM | 4800 nM
7 | Cn1cc(C(=O)NC2COc3cc(-c4noc(C5CC5)n4)ccc32)cn1 (stereo not shown) [Compound 237, N-(6-(5-cyclopropyl-1,2,4-oxadiazol-3-yl)-2,3-dihydrobenzofuran-3-yl)-1-methyl-1H-pyrazole-4-carboxamide] | 1100 nM | 3600 nM
8 | CCc1nc(-c2ccc3c(c2)OCC3NC(=O)c2cnn(C)c2)no1 (stereo not shown) [Compound 239, N-(6-(5-ethyl-1,2,4-oxadiazol-3-yl)-2,3-dihydrobenzofuran-3-yl)-1-methyl-1H-pyrazole-4-carboxamide] | 700 nM | 2100 nM
9 | CCc1nc(-c2ccc3c(c2)CC[C@H]3NC(=O)c2ccnn2C)no1 [Compound 240, (R)-N-(5-(5-ethyl-1,2,4-oxadiazol-3-yl)-2,3-dihydro-1H-inden-1-yl)-1-methyl-1H-pyrazole-5-carboxamide] | 300 nM | 800 nM
10 | Cn1nccc1C(=O)N[C@@H]1CCc2cc(-c3noc(C4CC4)n3)ccc21 [Compound 241, (R)-N-(5-(5-cyclopropyl-1,2,4-oxadiazol-3-yl)-2,3-dihydro-1H-inden-1-yl)-1-methyl-1H-pyrazole-5-carboxamide] | 200 nM | 800 nM
11 | [2H]C([2H])([2H])c1nc(-c2ccc3c(c2)CC[C@H]3NC(=O)c2ccnn2C)no1 [Compound 242, (R)-1-methyl-N-(5-(5-(methyl-d3)-1,2,4-oxadiazol-3-yl)-2,3-dihydro-1H-inden-1-yl)-1H-pyrazole-5-carboxamide] | 500 nM | 1500 nM
12 | [2H]C([2H])([2H])c1nc(-c2ccc3c(c2)CC[C@H]3NC(=O)c2nnn(C)n2)no1 [Compound 243, (R)-2-methyl-N-(5-(5-(methyl-d3)-1,2,4-oxadiazol-3-yl)-2,3-dihydro-1H-inden-1-yl)-2H-tetrazole-5-carboxamide] | 1300 nM | 4700 nM
13 | [2H]C([2H])([2H])c1nc(-c2ccc3c(c2)CC[C@H]3NC(=O)c2cnn(C)c2)no1 [Compound 244, (R)-1-methyl-N-(5-(5-(methyl-d3)-1,2,4-oxadiazol-3-yl)-2,3-dihydro-1H-inden-1-yl)-1H-pyrazole-4-carboxamide] | 1600 nM | 5400 nM
14 | [2H]C([2H])([2H])c1nc(-c2ccc3c(c2)CC[C@H]3NC(=O)c2ccnc(C)c2)no1 [Compound 245, (R)-2-methyl-N-(5-(5-(methyl-d3)-1,2,4-oxadiazol-3-yl)-2,3-dihydro-1H-inden-1-yl)isonicotinamide] | 1000 nM | 3400 nM
15 | [2H]C([2H])([2H])c1nc(-c2ccc3c(c2)CC[C@H]3NC(=O)c2cn(C)nc2C)no1 [Compound 246, (R)-1,3-dimethyl-N-(5-(5-(methyl-d3)-1,2,4-oxadiazol-3-yl)-2,3-dihydro-1H-inden-1-yl)-1H-pyrazole-4-carboxamide] | 1100 nM | 3500 nM
16 | [2H]C([2H])([2H])c1nc(-c2ccc3c(c2)CC[C@H]3NC(=O)c2cc(C)nn2C)no1 [Compound 247, (R)-1,3-dimethyl-N-(5-(5-(methyl-d3)-1,2,4-oxadiazol-3-yl)-2,3-dihydro-1H-inden-1-yl)-1H-pyrazole-5-carboxamide] | 800 nM | 2600 nM
17 | [2H]C([2H])([2H])c1nc(-c2ccc3c(c2)CC[C@H]3NC(=O)c2oncc2C)no1 [Compound 248, (R)-4-methyl-N-(5-(5-(methyl-d3)-1,2,4-oxadiazol-3-yl)-2,3-dihydro-1H-inden-1-yl)isoxazole-5-carboxamide] | 400 nM | 1500 nM
18 | [2H]C([2H])([2H])c1nc(-c2ccc3c(c2)CC[C@H]3NC(=O)c2cnc(C)o2)no1 [Compound 249, (R)-2-methyl-N-(5-(5-(methyl-d3)-1,2,4-oxadiazol-3-yl)-2,3-dihydro-1H-inden-1-yl)oxazole-5-carboxamide] | 1400 nM | 5200 nM
19 | [2H]C([2H])([2H])c1nc(-c2ccc3c(c2)CC[C@H]3NC(=O)c2cnn(C)c2C)no1 [Compound 250, (R)-1,5-dimethyl-N-(5-(5-(methyl-d3)-1,2,4-oxadiazol-3-yl)-2,3-dihydro-1H-inden-1-yl)-1H-pyrazole-4-carboxamide] | 1000 nM | 3600 nM
20 | [2H]C([2H])([2H])c1nc(-c2ccc3c(c2)CC[C@H]3NC(=O)c2ocnc2C)no1 [Compound 251, (R)-4-methyl-N-(5-(5-(methyl-d3)-1,2,4-oxadiazol-3-yl)-2,3-dihydro-1H-inden-1-yl)oxazole-5-carboxamide] | 500 nM | 1500 nM
21 | Cc1cc(-c2ccc3c(c2)CC[C@H]3NC(=O)c2nnn(C)n2)no1 [Compound 252, (R)-2-methyl-N-(5-(5-methylisoxazol-3-yl)-2,3-dihydro-1H-inden-1-yl)-2H-tetrazole-5-carboxamide] | 400 nM | 1500 nM
22 | CCc1noc(-c2ccc3c(c2)CC[C@H]3NC(=O)c2cnn(C)c2)n1 [Compound 254, (R)-N-(5-(3-ethyl-1,2,4-oxadiazol-5-yl)-2,3-dihydro-1H-inden-1-yl)-1-methyl-1H-pyrazole-4-carboxamide] | 1300 nM | 4900 nM
23 | CCc1noc(-c2ccc3c(c2)CC[C@H]3NC(=O)c2cnn(C)c2C)n1 [Compound 255, (R)-N-(5-(3-ethyl-1,2,4-oxadiazol-5-yl)-2,3-dihydro-1H-inden-1-yl)-1,5-dimethyl-1H-pyrazole-4-carboxamide] | 800 nM | 2600 nM
